In test [1] the test system is BJ. Briefly: cells. It counts as functional, cell-based. The following applies: Homo sapiens.
A short description of test [2]: DRD fibroblast viability loss – cell-based, non-viral oncogenic, luminescence, dose response (AID 1934). The format is functional. The following applies: Homo sapiens.
Test [3] deals with BJ. Briefly: BJ-TERT fibroblast viability loss – cell-based, RAS-independent, luminescence, dose response (AID 1933). It counts as functional. Particulars: Homo sapiens.
The target in test [4] is T1, Replicative DNA helicase DnaB (Mycobacterium tuberculosis, UniProt P9WMR3).
T1 sequence (P9WMR3 whole entry): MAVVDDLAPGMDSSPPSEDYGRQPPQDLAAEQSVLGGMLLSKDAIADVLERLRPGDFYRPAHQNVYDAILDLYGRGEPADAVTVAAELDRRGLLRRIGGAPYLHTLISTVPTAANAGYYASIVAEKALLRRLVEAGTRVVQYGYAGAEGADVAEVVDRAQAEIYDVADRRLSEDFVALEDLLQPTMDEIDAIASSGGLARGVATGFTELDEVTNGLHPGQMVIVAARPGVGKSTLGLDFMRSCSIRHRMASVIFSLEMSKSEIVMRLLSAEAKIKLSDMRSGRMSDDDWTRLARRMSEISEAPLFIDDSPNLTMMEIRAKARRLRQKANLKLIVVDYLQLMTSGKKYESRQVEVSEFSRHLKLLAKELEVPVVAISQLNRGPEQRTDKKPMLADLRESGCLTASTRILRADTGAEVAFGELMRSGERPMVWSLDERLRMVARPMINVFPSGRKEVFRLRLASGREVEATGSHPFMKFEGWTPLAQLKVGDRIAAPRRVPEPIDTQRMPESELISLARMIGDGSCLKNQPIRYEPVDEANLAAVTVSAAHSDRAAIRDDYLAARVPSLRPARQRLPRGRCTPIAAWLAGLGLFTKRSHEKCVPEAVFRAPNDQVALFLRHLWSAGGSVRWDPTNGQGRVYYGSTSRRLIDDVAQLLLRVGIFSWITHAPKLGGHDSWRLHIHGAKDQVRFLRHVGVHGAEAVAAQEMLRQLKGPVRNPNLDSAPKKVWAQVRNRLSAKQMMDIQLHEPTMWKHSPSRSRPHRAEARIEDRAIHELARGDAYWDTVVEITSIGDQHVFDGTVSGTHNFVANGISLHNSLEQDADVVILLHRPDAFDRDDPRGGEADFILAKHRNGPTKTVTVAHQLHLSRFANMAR
Briefly: DnaB intein splicing inhibitors, dose response, biochemical, cell-free fluorescence (AID 449749). The format is functional.

The target of test [5] is T2, Protein RecA (Mycobacterium tuberculosis, UniProt P9WHJ3).
T2 sequence (P9WHJ3 whole entry): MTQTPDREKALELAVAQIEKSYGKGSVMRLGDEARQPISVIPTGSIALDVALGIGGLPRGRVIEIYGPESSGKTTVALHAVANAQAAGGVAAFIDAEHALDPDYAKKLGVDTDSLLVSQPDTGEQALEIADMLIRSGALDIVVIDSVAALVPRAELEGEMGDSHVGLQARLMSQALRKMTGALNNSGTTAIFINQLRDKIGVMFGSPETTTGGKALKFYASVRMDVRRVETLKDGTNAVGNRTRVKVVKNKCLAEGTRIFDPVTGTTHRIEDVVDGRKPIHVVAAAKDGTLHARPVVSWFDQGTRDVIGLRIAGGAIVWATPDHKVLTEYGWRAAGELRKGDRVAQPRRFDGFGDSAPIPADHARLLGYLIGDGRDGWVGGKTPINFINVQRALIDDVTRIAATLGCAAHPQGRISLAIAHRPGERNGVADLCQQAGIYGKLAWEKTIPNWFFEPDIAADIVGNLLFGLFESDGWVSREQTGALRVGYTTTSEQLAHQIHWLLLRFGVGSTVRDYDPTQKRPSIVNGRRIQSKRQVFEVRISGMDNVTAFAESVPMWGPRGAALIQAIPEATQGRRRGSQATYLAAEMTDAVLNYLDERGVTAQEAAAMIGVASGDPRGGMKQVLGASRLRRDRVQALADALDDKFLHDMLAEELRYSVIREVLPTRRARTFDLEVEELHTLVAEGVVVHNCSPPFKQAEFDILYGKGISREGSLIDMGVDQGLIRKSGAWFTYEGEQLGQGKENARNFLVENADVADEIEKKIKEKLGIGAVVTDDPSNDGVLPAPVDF
Briefly: Fluorescence Cell-Free Homogeneous Dose Retest to Identify Inhibitors of RecA-Intein Splicing Activity. [Related pubchem assays (depositor defined):AID2097, AID2223, AID489010, AID492950]. The format is functional.

Test [6] addresses T3, Heat shock factor protein 1 (Mus musculus, UniProt P38532).
T3 sequence (P38532 whole entry): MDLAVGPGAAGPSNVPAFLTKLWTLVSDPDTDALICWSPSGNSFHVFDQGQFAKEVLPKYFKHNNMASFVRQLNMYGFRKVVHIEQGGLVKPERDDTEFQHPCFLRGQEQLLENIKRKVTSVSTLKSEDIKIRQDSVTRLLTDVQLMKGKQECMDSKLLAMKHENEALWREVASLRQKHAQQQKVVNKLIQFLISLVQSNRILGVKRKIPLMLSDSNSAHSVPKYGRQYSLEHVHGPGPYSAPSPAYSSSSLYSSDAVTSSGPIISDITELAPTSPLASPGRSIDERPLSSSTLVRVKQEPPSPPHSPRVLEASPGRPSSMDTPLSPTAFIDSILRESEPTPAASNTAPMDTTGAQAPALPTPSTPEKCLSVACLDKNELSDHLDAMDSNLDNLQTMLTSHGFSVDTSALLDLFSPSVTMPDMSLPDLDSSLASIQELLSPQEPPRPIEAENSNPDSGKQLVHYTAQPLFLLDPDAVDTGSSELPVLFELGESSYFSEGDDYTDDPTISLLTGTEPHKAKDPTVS
Briefly: enhancement of HSF1-driven luciferase signal – cell-based, NIH3T3, luminescence, dose retest, confirmation (AID 435004).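 Note: stress induced by proteasome inhibitor MG132 added 30 min after compound; luciferase reporter driven by HSF1 response element in NIH3T3 cells; actives raise luminescence as potentiators of the MG132 stress response.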 The format is functional.

The target in test [7] is T4, Zinc finger protein mex-5 (Caenorhabditis elegans, UniProt Q9XUB2).
T4 sequence (Q9XUB2 whole entry): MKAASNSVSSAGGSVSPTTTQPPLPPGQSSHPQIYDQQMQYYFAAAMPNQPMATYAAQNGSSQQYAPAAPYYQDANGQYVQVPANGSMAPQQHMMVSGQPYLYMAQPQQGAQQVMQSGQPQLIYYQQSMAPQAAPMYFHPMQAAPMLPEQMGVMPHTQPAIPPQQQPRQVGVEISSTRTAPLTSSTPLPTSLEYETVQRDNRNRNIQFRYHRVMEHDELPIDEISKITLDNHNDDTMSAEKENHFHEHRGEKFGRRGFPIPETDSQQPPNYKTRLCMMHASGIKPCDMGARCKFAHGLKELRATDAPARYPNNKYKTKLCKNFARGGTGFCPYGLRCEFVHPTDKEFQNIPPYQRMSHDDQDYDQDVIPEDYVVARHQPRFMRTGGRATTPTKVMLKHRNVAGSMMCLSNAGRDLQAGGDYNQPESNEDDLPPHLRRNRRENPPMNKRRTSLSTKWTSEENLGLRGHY
Briefly: potency of MEX-5 RNA-binding blockers – biochemical, C. elegans, fluorescence polarization, dose response (AID 1960). Background: Fluorescence polarisation rises when a labelled molecule tumbles more slowly, as on binding a larger partner.

The target in test [8] is Induced myeloid leukemia cell differentiation protein Mcl-1 (Homo sapiens, UniProt Q07820). It counts as functional.
Sequence of Induced myeloid leukemia cell differentiation protein Mcl-1 (Q07820 whole entry): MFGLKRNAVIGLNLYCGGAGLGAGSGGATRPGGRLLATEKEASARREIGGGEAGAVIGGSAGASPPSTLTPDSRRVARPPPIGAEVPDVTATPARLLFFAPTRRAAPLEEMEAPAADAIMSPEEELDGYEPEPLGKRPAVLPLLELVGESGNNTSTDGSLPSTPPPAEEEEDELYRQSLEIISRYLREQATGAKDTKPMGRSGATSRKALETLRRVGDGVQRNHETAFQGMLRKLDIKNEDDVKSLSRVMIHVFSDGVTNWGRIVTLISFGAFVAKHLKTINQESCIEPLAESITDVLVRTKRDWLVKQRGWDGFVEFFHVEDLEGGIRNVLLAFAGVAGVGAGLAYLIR
Test [9] addresses T5, Cytochrome P450 1A2 (Homo sapiens, UniProt P05177).
T5 sequence (P05177 whole entry): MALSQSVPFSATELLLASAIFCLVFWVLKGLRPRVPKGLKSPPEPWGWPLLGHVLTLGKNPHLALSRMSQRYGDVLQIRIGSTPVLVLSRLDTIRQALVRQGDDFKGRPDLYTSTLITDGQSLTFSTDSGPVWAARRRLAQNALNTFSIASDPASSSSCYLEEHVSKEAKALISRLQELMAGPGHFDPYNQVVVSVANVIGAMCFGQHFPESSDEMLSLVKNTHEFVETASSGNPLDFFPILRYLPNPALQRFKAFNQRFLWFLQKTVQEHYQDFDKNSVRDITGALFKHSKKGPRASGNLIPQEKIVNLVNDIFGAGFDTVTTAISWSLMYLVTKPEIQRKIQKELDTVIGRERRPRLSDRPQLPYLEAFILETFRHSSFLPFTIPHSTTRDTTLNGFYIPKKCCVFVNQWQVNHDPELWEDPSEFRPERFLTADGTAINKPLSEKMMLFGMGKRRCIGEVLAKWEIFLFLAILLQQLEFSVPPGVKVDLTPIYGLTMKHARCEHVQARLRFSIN

Test [10] addresses T6, RNA-binding protein pos-1 (Caenorhabditis elegans, UniProt G5EF15).
T6 sequence (G5EF15 whole entry): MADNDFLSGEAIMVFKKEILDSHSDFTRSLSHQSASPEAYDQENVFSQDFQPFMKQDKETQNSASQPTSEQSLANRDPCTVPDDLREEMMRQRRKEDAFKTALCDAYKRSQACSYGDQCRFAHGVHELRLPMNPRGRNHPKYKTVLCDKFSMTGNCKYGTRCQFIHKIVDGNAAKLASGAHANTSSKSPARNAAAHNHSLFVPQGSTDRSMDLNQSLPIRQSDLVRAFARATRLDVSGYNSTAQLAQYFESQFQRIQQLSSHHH
Briefly: disruptors of C. elegans POS-1 RNA interaction – biochemical, fluorescence polarization, dose response (AID 1964).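 Note: purified POS-1 fused to maltose binding protein made in E. coli; potency of compounds blocking POS-1 binding to fluorescent RNA.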

Test [11] can be described thus: viability of HCT116 lacking mutant beta-catenin – cell-based, human colon tumor, dose response (AID 1045).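 Note: HCT116 colon tumor cells with beta catenin knocked out; cells exposed to compound for 60 hours.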 It counts as functional.
The nature of test [12]: viability of PTEN-deleted HCT116 cells – cell-based, HCT116 PTEN knockout, dose response (AID 1047).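 Note: HCT116 colon tumor cells with PTEN knocked out; cells exposed to compound for 60 hours before readout; potency for loss of cell viability measured by luminescence.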 The format is functional.
In test [13] the test system is P388/ADR. Briefly: cells. Particulars: Mus musculus. The format is functional.
Test [14] concerns SN12K1. Briefly: cells. The format is functional. Particulars: Homo sapiens.
Test [15] concerns P388. Briefly: cells. The format is functional. Particulars: Mus musculus.

Activity calls are given as the source filed them.

`CCc1ccc(/C=C2/SC(=S)N(CCC(=O)NCCCN3CCOCC3)C2=O)cc1`: the EC50 (in general, the midpoint of the concentration-response curve) was 14.5 µM (active) in [1], > 38 µM (not active) in test [2] and 1.32 µM (active) in test [3].

As to `O=C(CSc1nc2ccccc2nc1SCC(=O)N1CCOCC1)N1CCOCC1`, in test [4], the AC50 – broadly, the concentration giving half of the maximal activity seen – is 194 µM (active). For the same compound, the EC50 in test [5] was > 380 µM (inactive).

Regarding `CCCCNC1C(CC)C(CCC)C(C#N)(C#N)C1(C#N)C#N` (stereo unspecified), the AC50 in test [4] was > 380 µM (inactive). For the same compound, the values for the EC50 in test [6] and in [5] were 11.1 µM (active) and 2.36 µM (active), respectively.

Regarding `COc1cc(C2C(C#N)=C(N)OC3=C2C(=O)CCC3)c([N+](=O)[O-])cc1OC` (stereo unspecified), the EC50 was 13.8 µM (active) in [7] and 15.8 µM (active) in test [10]. Moreover, the IC50 (as a rule, the concentration that gives 50% inhibition) in test [8] was 3.9 µM (active). Further, the AC50 in test [9] is 31.6 µM (inconclusive).

In the case of `Cc1ccc(S(=O)(=O)c2nc(-c3ccc(F)cc3)oc2SCC(=O)NCC2CCCO2)cc1` (stereo unspecified), the EC50 in [11] is 35.3 µM (active); in test [12], 83.1 µM (active).

Consider `Cc1cccc(N2CCN(C(=O)c3cn(C)c(=O)c4c3c3ccccc3n4C)CC2)c1C`, for which the EC50 in [11] is 18.6 µM (active); in test [12] it was 19.1 µM (active).

For `O=[N+]([O-])c1ccc(Nc2cccc3c4cc[nH]c(-c5ccccc5)c-4nc23)c([N+](=O)[O-])c1`, the figures for the GI50 in [13], in [14] and in test [15] were 14.3 µM (inactive), 10 µM (inactive) and 20.1 µM (inactive), respectively.

`CCOC(=O)COc1ccccc1/C=C1\CCC(CN(C)C)C1=O` (stereo unspecified): the GI50 (as a rule, the concentration giving 50% growth inhibition) in test [13] was 0.436 µM (active); in test [14], 1.87 µM (inactive); in test [15], 0.342 µM (active).

For the compound `CCOC(=O)C(C)NC(=O)N(C)C12CC3CC(CC(C3)C1)C2` (stereo unspecified), the results for the GI50 in test [13], in test [14] and in test [15] were 123 µM (inactive), 190 µM (inactive) and 52.2 µM (inactive), respectively.

`CC12CCC3C(CCC4(O)C=CCCC34C=O)C1(O)CC(O)C2c1ccc(=O)oc1` (stereo unspecified): the GI50 in test [13] was > 500 µM (inactive); in test [14], 0.0624 µM (active); in test [15], 336 µM (inactive).

With `CN(C)CCNc1c([N+](=O)[O-])cc2c3c(cccc13)C(=O)N(CCN(C)C)C2=O`, the GI50 in [13] is 1.87 µM (inactive); in test [14] it was 7.83 µM (inactive); in [15] it was 0.925 µM (active).

For `CC(C)=CCc1c(O)ccc2c1OC1c3ccc(O)c(CC=C(C)C)c3OCC21` (stereo unspecified), the GI50 in [13] was 7.31 µM (inactive); in test [14] it was 4.92 µM (inactive); in test [15], 5.55 µM (inactive).

As for `O=S1(=O)N2CN3CN(C2)CN1C3`, the figures for the GI50 in [13], in [14] and in test [15] were 21.2 µM (inactive), > 100 µM (inactive) and 18.5 µM (inactive), respectively.

On to `C=CCNC(=O)C(C)C1CCC2(C)C=CC(=O)C(C)=C2C1O` (stereo unspecified), for which the GI50 in test [13], in [14] and in test [15] was > 100 µM (inactive) each time.

On to `O=C(O)CCC(NC(=O)c1ccc(Nc2cnc3cc(C(F)(F)F)ccc3n2)cc1)C(=O)O` (stereo unspecified), for which the GI50 in test [13], in [14] and in test [15] was > 100 µM (inactive) in each case.

As to `Cc1c(C2=NN=C(/N=N/c3c(O)cccc3O)/C2=C/c2ccccc2)c(=O)n(-c2ccccc2)n1C`, the GI50 in test [13], in test [14] and in test [15] was > 100 µM (inactive) each time.

As to `CC1(CO)C(O)CCC2(C)C1CCC1CC3CC12CCC3(O)CO` (stereo unspecified), the GI50 in [13] was 0.42 µM (active); in test [14] it was 1.16 µM (inactive); in test [15], 0.394 µM (active).

As to `COc1ccc(/C=C/C(=O)Oc2ccc(/C=N/NC(=O)c3ccccc3)cc2)cc1OC`, the EC50 in [11] is 25.8 µM (active); in test [12] it was 27.7 µM (active).

These data come from ChEMBL document CHEMBL1201862, “PubChem BioAssay data set” (2004).
